Assays:
human MrgprX1 = molecular target: T1, human MrgprX1 (Homo sapiens, UniProt Q96LB2); assay: MrgprX1 positive allosteric modulator (PAM) calcium FLIPR assay in HEK293 cells; format: cell-based; conditions: PAM activity in presence of EC20 concentration of BAM8-22; HEK293 cells stably transfected with human MrgprX1
T1 construct: expressed in transfected cells
Procedure: HEK293 cells stably transfected with human MrgprX1 were plated onto poly-D-lysine-coated, black-walled, 96-well plates at a seeding density of 12,000 cells/well and grown for two days. On the day of the experiment, cells were incubated with Fluo-4 AM 2 μM, pluronic acid 0.04% and Trypan Red 1% in HBSS (pH 7.4, 100 μL) for 1 h at 37° C. For each different passage of cells, a BAM8-22 dose response was first conducted and the BAM8-22 EC20 determined. Test compounds were then dissolved and serially diluted in DMSO, further diluted with Trypan Red (1%)-containing HBSS (50 μL) and added to cells (0.33% DMSO concentration by volume) to first monitor for agonist activity. After 2.5 min, BAM8-22 at 4-fold EC20 (50 μL) was added to cells (0.25% DMSO concentration by volume) and the cells imaged on the FLIPR for an additional 2 minutes to monitor the test compounds for PAM activity. Finally, data were normalized to fluorescence signals obtained from 250 nM of BAM8-22 (maximum) and BAM8-22 at its EC20 concentration (minimum). EC50 of a test compound was defined as the concentration required to provoke a response halfway between the minimum and maximum response in the presence of EC20 concentration of BAM8-22.

[1] = Metabolic stability in mouse liver microsomes; format: in vitro ADME; conditions: mouse liver microsomes 0.5 mg/mL, NADPH, compound 5 μM, 60 min
Procedure: (§1) The metabolic stability was evaluated using mouse liver microsomes. For the cytochrome P450 (CYP)-mediated metabolism, the reaction was carried out with 100 mM potassium phosphate buffer, pH 7.4, in the presence of NADPH regenerating system (1.3 mM NADPH, 3.3 mM glucose 6-phosphate, 3.3 mM MgCl2, 0.4 U/mL glucose-6-phosphate dehydrogenase, 50 μM sodium citrate). Reactions, in triplicate, were initiated by addition of the liver microsomes to the incubation mixture (compound final concentration was 5 μM; 0.5 mg/mL microsomes). After 60 min of incubation, aliquots of the mixture were removed and the reaction quenched by addition of three times the volume of ice-cold acetonitrile spiked with the internal standard. Compound disappearance was monitored over time using a liquid chromatography and tandem mass spectrometry (LC/MS/MS) method.

[2] = Metabolic stability in human liver microsomes; format: in vitro ADME
Procedure: [The procedure below names another species; the source lists this species under the same test.] as §1

T1 sequence (Q96LB2 whole entry): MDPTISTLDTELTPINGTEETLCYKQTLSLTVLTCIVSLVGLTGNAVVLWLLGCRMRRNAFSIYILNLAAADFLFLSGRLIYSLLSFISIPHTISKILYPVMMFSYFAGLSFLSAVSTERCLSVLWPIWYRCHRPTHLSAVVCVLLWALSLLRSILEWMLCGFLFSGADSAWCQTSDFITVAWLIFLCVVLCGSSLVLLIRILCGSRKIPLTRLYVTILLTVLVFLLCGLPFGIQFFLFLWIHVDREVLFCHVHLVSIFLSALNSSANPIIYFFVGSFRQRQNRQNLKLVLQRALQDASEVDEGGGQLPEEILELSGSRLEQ

Structure (SMILES)	EC50 (human MrgprX1)	% remaining after 1-h incubation, Mouse [1]	% remaining after 1-h incubation, Human [2]	melting point
CC(C)(C)c1sc2ncnc(Oc3ccccc3F)c2c1-c1ccccc1 [Compound 7bd, 6-(tert-butyl)-4-(2-fluorophenoxy)-5-phenylthieno[2,3-d]pyrimidine]	300 nM	<5%	78%	81 to 82 °C
CC(C)(C)c1sc2ncnc(Oc3c(F)cccc3F)c2c1-c1ccc(Cl)c(Cl)c1 [Compound 7n, 6-tert-butyl-5-(3,4-dichlorophenyl)-4-(2,6-difluorophenoxy)thieno[2,3-d]pyrimidine]	20 nM	36%	93%	205 °C
CC(C)(C)c1sc2ncnc(Oc3c(F)cccc3OC(F)(F)F)c2c1-c1ccc(F)c(F)c1 [Compound 7al, 6-tert-butyl-5-(3,4-difluorophenyl)-4-(2-fluoro-6-(trifluoromethoxy)phenoxy)thieno[2,3-d]pyrimidine]	20 nM	>95%	>95%	150 °C
Cc1sc2ncnc(Oc3ccccc3F)c2c1C [Compound 7ba, 4-(2-fluorophenoxy)-5,6-dimethylthieno[2,3-d]pyrimidine]	200 nM	<5%	<5%	144 °C
CC(C)(C)c1sc2ncnc(Oc3c(F)cccc3OC(F)(F)F)c2c1-c1cccc(Cl)c1 [Compound 7ar, 6-tert-butyl-5-(3-chlorophenyl)-4-(2-fluoro-6-(trifluoromethoxy)phenoxy)thieno[2,3-d]pyrimidine]	30 nM			126 °C
CC(C)(C)c1sc2ncnc(Oc3c(F)cccc3OC(F)(F)F)c2c1N1CCCCC1 [Compound 7bh, 6-(tert-butyl)-4-(2-fluoro-6-(trifluoromethoxy)phenoxy)-5-(piperidin-1-yl)thieno[2,3-d]pyrimidine]	40 nM			133 °C
CCN(CC)c1c(C(C)(C)C)sc2ncnc(Oc3c(F)cccc3OC(F)(F)F)c12 [Compound 7bj, 6-(tert-butyl)-N,N-diethyl-4-(2-fluoro-6-(trifluoromethoxy)phenoxy)thieno[2,3-d]pyrimidin-5-amine]	70 nM			72 °C
CC(C)(C)c1sc2ncnc(Oc3c(F)cccc3OC(F)(F)F)c2c1N1CCCC1 [Compound 7bf, 6-(tert-butyl)-4-(2-fluoro-6-(trifluoromethoxy)phenoxy)-5-(pyrrolidin-1-yl)thieno[2,3-d]pyrimidine]	30 nM			115 °C

The remaining lines, values ahead:

EC50 (human MrgprX1)	% remaining after 1-h incubation, Mouse [1]	% remaining after 1-h incubation, Human [2]	melting point	Structure (SMILES)
10 nM	>95%	>95%		CC(C)(C)c1sc2ncnc(Oc3c(F)cccc3OC(F)(F)F)c2c1-c1ccc(Cl)cc1 [Compound 7ao, 6-tert-butyl-5-(4-chlorophenyl)-4-(2-fluoro-6-(trifluoromethoxy)phenoxy)thieno[2,3-d]pyrimidine]
400 nM	<5%	12%	158 °C	Cc1sc2ncnc(Oc3ccccc3F)c2c1-c1ccccc1 [Compound 7bb, 4-(2-fluorophenoxy)-6-methyl-5-phenylthieno[2,3-d]pyrimidine]
500 nM	<5%		107 °C	Cc1ccccc1Oc1ncnc2sc(C)c(C)c12 [Compound 7az, 5,6-dimethyl-4-(o-tolyloxy)thieno[2,3-d]pyrimidine]
400 nM	<5%	61%		CC(C)(C)c1cc2c(Oc3ccccc3F)ncnc2s1 [Compound 7bc, 6-(tert-butyl)-4-(2-fluorophenoxy)thieno[2,3-d]pyrimidine]
50 nM	74%	>95%	134 to 137 °C	CC(C)(C)c1sc2ncnc(Oc3c(F)cccc3OC(F)(F)F)c2c1-c1ccc(Cl)c(Cl)c1 [Compound 7b, 6-tert-butyl-5-(3,4-dichlorophenyl)-4-(2-fluoro-6-(trifluoromethoxy)phenoxy)thieno[2,3-d]pyrimidine]
300 nM			194 °C	CC(C)(C)c1sc2ncnc(Oc3ccccc3F)c2c1-c1ccc(F)cc1 [Compound 7au, 6-tert-butyl-4-(2-fluorophenoxy)-5-(4-fluorophenyl)thieno[2,3-d]pyrimidine]
700 nM			136 °C	COc1ccccc1Oc1ncnc2sc(C(C)(C)C)c(-c3ccc(Cl)c(Cl)c3)c12 [Compound 7q, 6-tert-butyl-5-(3,4-dichlorophenyl)-4-(2-methoxyphenoxy)thieno[2,3-d]pyrimidine]
100 nM			159 to 161 °C	CC(C)(C)c1oc2ncnc(Oc3c(F)cccc3OC(F)(F)F)c2c1C(=O)N1CCCCC1 [Compound 7bk, (6-(tert-butyl)-4-(2-fluoro-6-(trifluoromethoxy)phenoxy)furo[2,3-d]pyrimidin-5-yl)(piperidin-1-yl)methanone]
100 nM			150 °C	CC(C)(C)c1sc2ncnc(Oc3ccccc3OC(F)(F)F)c2c1-c1cccc(F)c1 [Compound 7av, 6-tert-butyl-5-(3-fluorophenyl)-4-(2-(trifluoromethoxy)phenoxy)thieno[2,3-d]pyrimidine]
> 100000 nM			144 °C	CC(C)(C)c1sc2ncnc(Oc3cccc(F)c3)c2c1-c1ccc(Cl)c(Cl)c1 [Compound 7o, 6-tert-butyl-5-(3,4-dichlorophenyl)-4-(3-fluorophenoxy)thieno[2,3-d]pyrimidine]
